Test results: ChEMBL document CHEMBL1135170, “4,4-Disubstituted cyclohexylamine NK(1) receptor antagonists II” (Bioorg Med Chem Lett, 2002)

How the values were obtained:
Gerbillinae [1] = assay: Compound was evaluated for the inhibition of GR 73632-induced foot tapping in gerbils after intravenous administration at 2 hour; format: functional; details: read-out: ID50 (the source's name)
Gerbillinae [2] = assay: Compound was evaluated for the inhibition of GR 73632-induced foot tapping in gerbils after intravenous administration at 24 hr; format: functional; details: read-out: ID50 (the source's name)
Gerbillinae [3] = assay: Compound was evaluated for the inhibition of GR 73632-induced foot tapping in gerbils after intravenous administration at 0 (initial) hour; format: functional; details: read-out: ID50 (the source's name)
[4] = target: Voltage-gated inwardly rectifying potassium channel KCNH2 (Homo sapiens, UniProt Q12809); assay: Compound was evaluated for the displacement of labelled MK-499 from the cloned channel expressed in HEK cells (Ikr channel); format: cell-based, HEK293
Chain of Voltage-gated inwardly rectifying potassium channel KCNH2 (Q12809 whole entry): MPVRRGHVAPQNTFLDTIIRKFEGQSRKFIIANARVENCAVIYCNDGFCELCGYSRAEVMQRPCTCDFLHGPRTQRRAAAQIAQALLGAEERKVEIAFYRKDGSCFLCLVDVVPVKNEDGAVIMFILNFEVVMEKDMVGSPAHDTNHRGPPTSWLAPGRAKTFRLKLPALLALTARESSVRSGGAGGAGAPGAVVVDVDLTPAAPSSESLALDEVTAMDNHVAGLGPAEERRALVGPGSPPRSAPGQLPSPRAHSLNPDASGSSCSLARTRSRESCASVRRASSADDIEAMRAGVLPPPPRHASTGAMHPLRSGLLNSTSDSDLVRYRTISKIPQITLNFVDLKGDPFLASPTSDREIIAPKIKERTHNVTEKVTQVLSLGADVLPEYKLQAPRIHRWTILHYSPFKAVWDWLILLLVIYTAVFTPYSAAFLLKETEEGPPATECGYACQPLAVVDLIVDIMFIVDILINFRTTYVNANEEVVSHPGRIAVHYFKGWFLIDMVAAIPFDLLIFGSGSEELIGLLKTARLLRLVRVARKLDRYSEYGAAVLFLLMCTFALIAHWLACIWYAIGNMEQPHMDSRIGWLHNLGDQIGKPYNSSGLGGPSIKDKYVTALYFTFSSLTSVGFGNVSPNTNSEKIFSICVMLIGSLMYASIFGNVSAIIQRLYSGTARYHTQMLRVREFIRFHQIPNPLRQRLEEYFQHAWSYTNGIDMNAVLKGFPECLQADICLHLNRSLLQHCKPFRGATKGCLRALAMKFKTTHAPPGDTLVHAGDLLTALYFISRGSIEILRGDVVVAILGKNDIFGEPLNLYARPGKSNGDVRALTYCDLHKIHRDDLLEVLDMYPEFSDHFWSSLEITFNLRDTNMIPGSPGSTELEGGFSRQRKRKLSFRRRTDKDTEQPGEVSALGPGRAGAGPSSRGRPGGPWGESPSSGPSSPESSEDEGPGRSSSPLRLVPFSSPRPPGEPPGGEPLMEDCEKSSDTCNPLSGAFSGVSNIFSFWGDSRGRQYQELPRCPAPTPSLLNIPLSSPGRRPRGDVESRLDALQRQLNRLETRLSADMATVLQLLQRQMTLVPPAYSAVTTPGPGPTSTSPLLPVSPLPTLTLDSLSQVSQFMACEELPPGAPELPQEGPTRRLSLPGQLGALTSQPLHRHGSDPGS

Substance-P receptor = Substance-P receptor (Homo sapiens, UniProt P25103); assay: Displacement of [125 I] -labelled substance P from the cloned Tachykinin receptor 1 expressed in CHO cells; format: cell-based
Chain of Substance-P receptor (P25103 whole entry): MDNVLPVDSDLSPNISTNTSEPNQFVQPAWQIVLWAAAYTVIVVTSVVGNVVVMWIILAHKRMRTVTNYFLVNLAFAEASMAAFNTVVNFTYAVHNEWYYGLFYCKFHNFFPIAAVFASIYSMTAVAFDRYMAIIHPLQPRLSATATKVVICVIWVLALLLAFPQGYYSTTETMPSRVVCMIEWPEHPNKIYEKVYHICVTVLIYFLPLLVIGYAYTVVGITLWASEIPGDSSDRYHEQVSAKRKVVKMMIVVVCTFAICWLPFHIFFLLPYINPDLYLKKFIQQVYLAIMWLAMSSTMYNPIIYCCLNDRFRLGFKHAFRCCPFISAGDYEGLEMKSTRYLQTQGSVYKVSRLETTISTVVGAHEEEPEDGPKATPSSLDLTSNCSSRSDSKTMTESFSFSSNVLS

Gerbillinae [5] = assay: Compound was evaluated for the inhibition of GR 73632-induced foot tapping in gerbils 2 hour after oral administration; format: functional; details: read-out: ID50 (the source's name)
Gerbillinae [6] = assay: Compound was evaluated for the inhibition of GR 73632-induced foot tapping in gerbils after intravenous administration at 24 hr at a concentration of 3 mg/kg; format: functional
Gerbillinae [7] = assay: Compound was evaluated for the inhibition of GR 73632-induced foot tapping in gerbils after intravenous administration; format: functional; details: read-out: ID50 (the source's name)
Gerbillinae [8] = assay: Compound was evaluated for the inhibition of GR 73632-induced foot tapping in gerbils after intravenous administration at 2 hour at a dose 3 mg/kg iv; format: functional
[9] = Bioavailability in rat; format: ADME, organism-based; details: in vivo

Compound | Ki [4] [nM] | IC50 (Substance-P receptor) [nM] | further results
CC(C(=O)N[C@]1(c2ccccc2)CC[C@@H](N2CCC(c3ccc(F)cc3)CC2)CC1)c1cc(C(F)(F)F)cc(C(F)(F)F)c1 (some centres not stated) | 43 | – | ED50 (Gerbillinae [1]): 0.6 mg/kg; ED50 (Gerbillinae [2]): 1.8 mg/kg; ED50 (Gerbillinae [3]): 1.7 mg/kg
CC(C(=O)N[C@]1(c2ccccc2)CC[C@@H](N2CCN(C(C)C)CC2)CC1)c1cc(C(F)(F)F)cc(C(F)(F)F)c1 (some centres not stated) | – | 0.39 | –
CC(C(=O)N[C@]1(c2ccccc2)CC[C@@H](N2CCC3(CC2)OCCO3)CC1)c1cc(C(F)(F)F)cc(C(F)(F)F)c1 (some centres not stated) | – | 0.3 | ED50 (Gerbillinae [2]): 5.4 mg/kg
CC(C(=O)N[C@]1(c2ccccc2)CC[C@@H](N2CCC(O)CC2)CC1)c1cc(C(F)(F)F)cc(C(F)(F)F)c1 (some centres not stated) | 1400 | 0.85 | –
CC(C(=O)N[C@]1(c2ccccc2)CC[C@H](N2CCCCC2)CC1)c1cc(C(F)(F)F)cc(C(F)(F)F)c1 (some centres not stated) | – | 2.4 | –
CC(C(=O)N[C@]1(c2ccccc2)CC[C@H](N(C)C)CC1)c1cc(C(F)(F)F)cc(C(F)(F)F)c1 (some centres not stated) | – | 22 | –
CC(C(=O)NC1(c2ccccc2)CCC(N2CCC3(CCC(=O)O3)CC2)CC1)c1cc(C(F)(F)F)cc(C(F)(F)F)c1 (configuration not stated) | 400 | 2.1 | –
CC(C(=O)NC1(c2ccccc2)CCC(N2CCC3(CCOC3)CC2)CC1)c1cc(C(F)(F)F)cc(C(F)(F)F)c1 (configuration not stated) | – | 0.34 | ED50 (Gerbillinae [5]): 2.2 mg/kg; ED50 (Gerbillinae [1]): 1.1 mg/kg; ED50 (Gerbillinae [2]): 1.6 mg/kg; ED50 (Gerbillinae [3]): 1.4 mg/kg
CC1CCN([C@H]2CC[C@](NC(=O)C(C)c3cc(C(F)(F)F)cc(C(F)(F)F)c3)(c3ccccc3)CC2)CC1 (some centres not stated) | 460 | 1.2 | –
CC(C(=O)NC1(c2ccccc2)CCC(N2CCC3(CCCO3)CC2)CC1)c1cc(C(F)(F)F)cc(C(F)(F)F)c1 (configuration not stated) | 730 | 0.22 | ED50 (Gerbillinae [1]): 0.7 mg/kg; ED50 (Gerbillinae [2]): 3.1 mg/kg
CC(C(=O)NC1(c2ccccc2)CCC(N2CCC(O)(Cc3ccccc3)CC2)CC1)c1cc(C(F)(F)F)cc(C(F)(F)F)c1 (configuration not stated) | 260 | 0.33 | –
CC(C(=O)NC1(c2ccccc2)CCC(N2CCC3(CC2)CCC(C)(C)O3)CC1)c1cc(C(F)(F)F)cc(C(F)(F)F)c1 (configuration not stated) | 950 | 0.35 | ED50 (Gerbillinae [1]): 1 mg/kg; inhibition in vivo at 3 mg/kg (Gerbillinae [6]): 72%
CC(C(=O)NC1(c2ccccc2)CCC(N2CCC3(CCOC3=O)CC2)CC1)c1cc(C(F)(F)F)cc(C(F)(F)F)c1 (configuration not stated) | 490 | 0.42 | –
CC(C(=O)N[C@]1(c2ccccc2)CC[C@@H](N2CCC(=O)CC2)CC1)c1cc(C(F)(F)F)cc(C(F)(F)F)c1 (some centres not stated) | – | 1.6 | –
O=C(NCc1cc(C(F)(F)F)cc(C(F)(F)F)c1)[C@]1(c2ccccc2)CC[C@@H](N2CCC(c3ccc(F)cc3)CC2)CC1 | – | 0.34 | ED50 (Gerbillinae [7]): 1.9 mg/kg; inhibition in vivo at 3 mg/kg (Gerbillinae [8]): 15%; bioavailability [9]: 70%
